The source of these data is ChEMBL document CHEMBL5291721, “A preclinical secondary pharmacology resource illuminates target-adverse drug reaction associations of marketed drugs” (Nat Commun, 2023).

By AC50 is commonly meant the concentration at which the activity in the assay is half-maximal. The low end stands for activity at low concentration, the high end for activity only at high concentration.

The target in one experiment is T1, Estrogen receptor (Homo sapiens, UniProt P03372).
T1 sequence (P03372 whole entry): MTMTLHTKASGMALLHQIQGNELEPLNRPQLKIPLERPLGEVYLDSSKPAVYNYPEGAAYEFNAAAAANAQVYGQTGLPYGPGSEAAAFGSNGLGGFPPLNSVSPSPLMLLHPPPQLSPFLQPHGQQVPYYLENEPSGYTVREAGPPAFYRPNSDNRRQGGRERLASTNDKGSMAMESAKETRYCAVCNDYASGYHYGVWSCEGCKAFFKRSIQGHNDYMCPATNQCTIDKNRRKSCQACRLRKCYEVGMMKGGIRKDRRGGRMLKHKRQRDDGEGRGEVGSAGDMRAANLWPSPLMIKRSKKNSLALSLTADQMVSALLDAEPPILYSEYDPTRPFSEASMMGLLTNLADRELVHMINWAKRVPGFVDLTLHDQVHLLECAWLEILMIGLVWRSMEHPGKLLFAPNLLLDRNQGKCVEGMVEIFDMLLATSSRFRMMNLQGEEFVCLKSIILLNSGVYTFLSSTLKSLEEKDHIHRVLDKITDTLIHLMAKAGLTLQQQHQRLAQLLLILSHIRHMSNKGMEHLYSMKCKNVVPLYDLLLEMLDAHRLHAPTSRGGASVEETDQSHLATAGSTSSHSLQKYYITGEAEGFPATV

The target in the next experiment is D(3) dopamine receptor (Homo sapiens, UniProt P35462).
Sequence of D(3) dopamine receptor (P35462 whole entry): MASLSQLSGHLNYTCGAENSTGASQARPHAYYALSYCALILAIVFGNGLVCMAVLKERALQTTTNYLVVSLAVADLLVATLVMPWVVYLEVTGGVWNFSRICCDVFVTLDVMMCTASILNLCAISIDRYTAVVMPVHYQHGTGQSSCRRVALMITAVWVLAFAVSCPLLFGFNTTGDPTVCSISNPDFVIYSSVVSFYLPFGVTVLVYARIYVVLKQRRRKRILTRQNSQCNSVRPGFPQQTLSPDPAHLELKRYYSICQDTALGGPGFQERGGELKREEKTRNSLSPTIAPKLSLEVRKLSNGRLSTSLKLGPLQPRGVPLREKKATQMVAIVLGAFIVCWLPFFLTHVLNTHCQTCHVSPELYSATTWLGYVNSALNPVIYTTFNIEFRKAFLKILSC
For experiment [1], the target named is T2, Muscarinic acetylcholine receptor M1 (Homo sapiens, UniProt P11229).
T2 sequence (P11229 whole entry): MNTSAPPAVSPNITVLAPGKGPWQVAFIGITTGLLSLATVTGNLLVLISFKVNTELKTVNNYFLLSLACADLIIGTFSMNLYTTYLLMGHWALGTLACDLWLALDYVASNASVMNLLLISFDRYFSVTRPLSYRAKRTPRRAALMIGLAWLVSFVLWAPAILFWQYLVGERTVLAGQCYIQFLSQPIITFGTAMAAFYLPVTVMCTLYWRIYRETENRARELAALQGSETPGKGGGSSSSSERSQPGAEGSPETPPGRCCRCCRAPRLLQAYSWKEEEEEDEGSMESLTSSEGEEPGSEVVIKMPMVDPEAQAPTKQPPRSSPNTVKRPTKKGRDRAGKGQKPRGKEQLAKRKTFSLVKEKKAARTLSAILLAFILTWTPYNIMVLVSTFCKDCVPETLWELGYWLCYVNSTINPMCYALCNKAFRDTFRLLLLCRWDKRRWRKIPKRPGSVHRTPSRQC
Format: functional, cell-based.

Experiment [2] has as its target T3, Alpha-1A adrenergic receptor (Homo sapiens, UniProt P35348).
T3 sequence (P35348 whole entry): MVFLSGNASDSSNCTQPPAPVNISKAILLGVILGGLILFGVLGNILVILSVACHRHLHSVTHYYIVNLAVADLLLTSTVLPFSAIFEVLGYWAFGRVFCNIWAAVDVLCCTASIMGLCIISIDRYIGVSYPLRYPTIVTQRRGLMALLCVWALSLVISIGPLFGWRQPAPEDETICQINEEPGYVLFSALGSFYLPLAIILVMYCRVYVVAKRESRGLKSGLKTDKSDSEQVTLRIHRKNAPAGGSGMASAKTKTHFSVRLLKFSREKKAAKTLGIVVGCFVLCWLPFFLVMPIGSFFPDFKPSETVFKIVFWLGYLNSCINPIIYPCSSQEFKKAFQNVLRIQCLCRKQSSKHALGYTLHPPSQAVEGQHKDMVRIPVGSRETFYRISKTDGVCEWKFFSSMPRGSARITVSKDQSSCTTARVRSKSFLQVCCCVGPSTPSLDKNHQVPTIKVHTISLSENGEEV
The class given is functional, cell-based.

Experiment [3] addresses Sodium-dependent serotonin transporter (Homo sapiens, UniProt P31645).
In experiment [4] the target is T4, Neuropeptide Y receptor type 1 (Homo sapiens, UniProt P25929).
T4 sequence (P25929 whole entry): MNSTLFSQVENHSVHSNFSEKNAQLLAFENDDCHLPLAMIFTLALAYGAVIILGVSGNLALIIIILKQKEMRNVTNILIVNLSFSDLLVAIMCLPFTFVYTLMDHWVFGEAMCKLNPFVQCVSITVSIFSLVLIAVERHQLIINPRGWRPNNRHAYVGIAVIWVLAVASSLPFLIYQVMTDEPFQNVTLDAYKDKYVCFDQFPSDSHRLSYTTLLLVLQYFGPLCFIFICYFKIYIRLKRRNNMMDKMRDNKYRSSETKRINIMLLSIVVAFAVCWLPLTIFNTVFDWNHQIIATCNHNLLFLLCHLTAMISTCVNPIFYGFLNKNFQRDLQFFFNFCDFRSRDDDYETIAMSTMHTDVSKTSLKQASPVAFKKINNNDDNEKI

Experiment [5] deals with T3, Alpha-1A adrenergic receptor. Format: functional, cell-based. This is another data set of the same source.
Experiment [6] addresses T5, Muscarinic acetylcholine receptor M2 (Homo sapiens, UniProt P08172).
T5 sequence (P08172 whole entry): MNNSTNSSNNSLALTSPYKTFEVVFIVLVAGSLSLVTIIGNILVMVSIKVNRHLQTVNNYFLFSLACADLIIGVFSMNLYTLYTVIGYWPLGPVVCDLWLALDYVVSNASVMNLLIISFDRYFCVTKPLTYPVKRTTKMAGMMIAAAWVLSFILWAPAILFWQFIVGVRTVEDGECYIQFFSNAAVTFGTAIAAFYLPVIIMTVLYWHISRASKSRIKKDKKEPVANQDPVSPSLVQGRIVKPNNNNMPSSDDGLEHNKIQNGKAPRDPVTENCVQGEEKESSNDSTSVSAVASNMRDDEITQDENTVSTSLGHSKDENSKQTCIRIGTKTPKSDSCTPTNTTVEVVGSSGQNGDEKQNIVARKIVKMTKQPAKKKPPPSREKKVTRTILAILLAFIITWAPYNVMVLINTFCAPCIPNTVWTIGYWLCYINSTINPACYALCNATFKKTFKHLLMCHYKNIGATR
Format: functional, cell-based.
Further: assay procedure not described here.

Sequence of Sodium-dependent serotonin transporter (P31645 whole entry): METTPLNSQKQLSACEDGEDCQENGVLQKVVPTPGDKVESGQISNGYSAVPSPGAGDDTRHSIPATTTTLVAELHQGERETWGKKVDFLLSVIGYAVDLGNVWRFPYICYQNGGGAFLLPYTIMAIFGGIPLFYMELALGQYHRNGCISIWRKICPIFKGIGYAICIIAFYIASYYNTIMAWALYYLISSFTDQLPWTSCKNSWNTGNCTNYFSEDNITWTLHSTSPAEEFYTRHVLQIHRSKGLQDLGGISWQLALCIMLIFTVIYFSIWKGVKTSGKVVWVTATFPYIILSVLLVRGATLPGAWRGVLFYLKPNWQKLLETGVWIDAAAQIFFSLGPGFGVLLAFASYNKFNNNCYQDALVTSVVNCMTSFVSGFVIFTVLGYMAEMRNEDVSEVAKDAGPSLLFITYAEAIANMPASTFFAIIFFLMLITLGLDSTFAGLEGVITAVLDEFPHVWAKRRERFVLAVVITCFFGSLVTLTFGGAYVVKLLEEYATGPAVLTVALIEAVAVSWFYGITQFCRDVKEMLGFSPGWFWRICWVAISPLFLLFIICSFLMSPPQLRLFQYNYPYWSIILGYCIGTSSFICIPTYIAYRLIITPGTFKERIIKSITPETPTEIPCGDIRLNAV

For the compound `Cc1cc2c(cc1S(N)(=O)=O)S(=O)(=O)CCC2`, the AC50 (on Estrogen receptor; on D(3) dopamine receptor; in experiment [1]; in experiment [2]; in experiment [3]) was over 30 µM in each case.

For the compound `C[C@H](N[C@@H](CCc1ccccc1)C(=O)O)C(=O)N1Cc2ccccc2C[C@H]1C(=O)O`, the AC50 (on Estrogen receptor; at D(3) dopamine receptor; in experiment [1]; in experiment [2]; in experiment [3]) was over 30 µM each time.

For the compound `O=C(O)[C@@H]1C[C@@H](O)CN1`, the AC50 (at Estrogen receptor; in experiment [1]; in experiment [2]; in experiment [3]) was over 30 µM in each case.

Turning to `CC1(C)S[C@@H]2[C@H](/N=C/N3CCCCCC3)C(=O)N2[C@H]1C(=O)O` [AMDINOCILLIN], the AC50 (at Estrogen receptor; at D(3) dopamine receptor; in experiment [1]; in experiment [2]; in experiment [3]) was over 30 µM throughout.

Regarding `CC(=O)[C@]1(N)Cc2c(O)c3c(c(O)c2[C@@H](O[C@H]2C[C@H](O)[C@H](O)CO2)C1)C(=O)c1ccccc1C3=O` [AMRUBICIN], the AC50 was over 30 µM at Estrogen receptor; over 30 µM at D(3) dopamine receptor; over 3 µM in experiment [1]; 20.1 µM in experiment [2]; over 30 µM in experiment [3].

Turning to `NC(=O)[C@@H]1CC[C@@H]2CN1C(=O)N2OS(=O)(=O)O` [AVIBACTAM], the AC50 (at Estrogen receptor; at D(3) dopamine receptor; in experiment [1]; in experiment [2]; in experiment [3]) was over 30 µM each time.

For `CC(=O)OC[C@H]1O[C@@H](n2ncc(=O)[nH]c2=O)[C@H](OC(C)=O)[C@@H]1OC(C)=O` [AZARIBINE], the half-maximal activity concentration (AC50) (on Estrogen receptor; on D(3) dopamine receptor; in experiment [2]) was over 30 µM in each case.

Turning to `O=C(/C=C/c1cccc(S(=O)(=O)Nc2ccccc2)c1)NO` [BELINOSTAT], the AC50 on Estrogen receptor was 27.9 µM; on D(3) dopamine receptor, over 30 µM; in experiment [4], over 30 µM.

As to `CC(C)(C)NC(=O)N[C@H](C(=O)N1C[C@H]2[C@@H]([C@H]1C(=O)NC(CC1CCC1)C(=O)C(N)=O)C2(C)C)C(C)(C)C` (stereo partly drawn) [BOCEPREVIR], the AC50 (at Estrogen receptor; on D(3) dopamine receptor; in experiment [1]; in experiment [2]; in experiment [3]) was over 30 µM throughout.

Turning to `O=C(O)COCCN1CCN(C(c2ccccc2)c2ccc(Cl)cc2)CC1` (stereo not drawn) [CETIRIZINE], the half-maximal activity concentration (AC50) (on Estrogen receptor; in experiment [2]; in experiment [4]; in experiment [5]) was over 30 µM in each case.

Regarding `NC[C@H]1CC[C@H](C(=O)Oc2ccc(CCC(=O)O)cc2)CC1` [CETRAXATE], the AC50 (at Estrogen receptor; in experiment [6]; on D(3) dopamine receptor; in experiment [5]) was over 30 µM each time.

Consider `C=C1CC[C@H](O)C/C1=C/C=C1\CCC[C@]2(C)[C@@H]([C@H](C)CCCC(C)C)CC[C@@H]12` [CHOLECALCIFEROL], for which the AC50 on Estrogen receptor was over 30 µM; at D(3) dopamine receptor, 15.6 µM; in experiment [2], over 30 µM.

In the case of `C[C@H](CCC(=O)O)[C@H]1CC[C@H]2[C@@H]3[C@H](O)C[C@@H]4C[C@H](O)CC[C@]4(C)[C@H]3C[C@H](O)[C@]12C` [CHOLIC ACID], the AC50 (on Estrogen receptor; in experiment [2]) was over 30 µM each time.

In the case of `Cc1ncc2c(c1O)COC2c1ccc(Cl)cc1` (stereo not drawn) [CICLETANINE], the AC50 (at Estrogen receptor; on D(3) dopamine receptor; in experiment [1]; in experiment [2]; in experiment [3]) was over 30 µM in each case.

As for `Cc1cn([C@H]2O[C@@H](CO)[C@H](O)[C@H]2F)c(=O)[nH]c1=O` [CLEVUDINE], the AC50 (on D(3) dopamine receptor; in experiment [1]; in experiment [2]; in experiment [3]) was over 30 µM throughout.

In the case of `N#Cc1ccc(Oc2ccc3c(c2)COB3O)cc1` [CRISABOROLE], the concentration at half-maximal activity (AC50) at Estrogen receptor was over 30 µM; at D(3) dopamine receptor, over 30 µM; in experiment [1], 13.7 µM; in experiment [2], over 30 µM; in experiment [3] it was over 30 µM.

As for `CC(=O)[C@H]1CC[C@H]2[C@@H]3C=CC4=CC(=O)CC[C@@]4(C)[C@@H]3CC[C@]12C` [DYDROGESTERONE], the AC50 on D(3) dopamine receptor is over 30 µM; in experiment [1], 5.06 µM; in experiment [2] it was over 30 µM; in experiment [3] it was over 30 µM.

In the case of `C[C@@H]1C[C@H]2[C@@H]3C[C@H](F)C4=CC(=O)C=C[C@]4(C)[C@@]3(F)[C@@H](O)C[C@]2(C)[C@@]1(OC(=O)c1ccco1)C(=O)SCF` [FLUTICASONE FUROATE], the AC50 in experiment [6] is over 10 µM; on D(3) dopamine receptor, over 30 µM; in experiment [1], over 30 µM; in experiment [2], over 30 µM; in experiment [4], over 10 µM; in experiment [5], over 30 µM.

`CC(=O)OCC(=O)[C@@]1(O)CC[C@H]2[C@@H]3CCC4=CC(=O)CC[C@]4(C)[C@H]3[C@@H](O)C[C@@]21C` [HYDROCORTISONE ACETATE]: the figures for the AC50 in experiment [1], in experiment [2] and in experiment [3] were 17.7 µM, over 30 µM and over 30 µM, respectively.

As for `COc1cccc(C(=O)CCN[C@@H](C)[C@H](O)c2ccccc2)c1` [OXYFEDRINE], the AC50 on D(3) dopamine receptor is 0.382 µM; in experiment [1], over 30 µM; in experiment [2], over 30 µM; in experiment [3], 4.77 µM.

As to `NNCCc1ccccc1` [PHENELZINE], the AC50 was over 30 µM at Estrogen receptor, over 30 µM at D(3) dopamine receptor and 11.5 µM in experiment [2].

For the compound `O=S1(=O)CCN(CN2CCS(=O)(=O)NC2)CN1` [TAUROLIDINE], the AC50 (at Estrogen receptor; in experiment [6]; at D(3) dopamine receptor; in experiment [5]; in experiment [3]) was over 30 µM throughout.

`Cc1ccc(C(=O)C(C)CN2CCCCC2)cc1` (stereo not drawn) [TOLPERISONE]: the AC50 is over 30 µM at Estrogen receptor, 2.52 µM at D(3) dopamine receptor and over 30 µM in experiment [2].

As to `COc1ccc2c(C(=S)N(C)CC(=O)O)cccc2c1C(F)(F)F` [TOLRESTAT], the half-maximal activity concentration (AC50) (at Estrogen receptor; at D(3) dopamine receptor; in experiment [3]) was over 30 µM in each case.
